Data reported in patent publication US6593342B1, “Pharmaceutical compositions comprising 2-quinolones” (Laboratoire L. Lafon, priority 1998, dated 2003).

Experiments:
U-87MG = experiment: MTT test, U-87MG; assay type: cell-based; details: Homo sapiens, 10^−5 M, 72 hours, control = 100%, mean ± SEM, read-out: average optical density (MTT), percentage relative to control
Experimental: (§1) The influence of the compounds of formulae (I) and (Ia) on non-clonogenic cells was evaluated with the aid of the MTT calorimetric test.
(§2) The principle of the MTT test is based on the mitochondrial reduction, by the metabolically active live cells, of the yellow-colored product MTT (3-(4,5-dimethylthiazol-2-yl)-2,5-diphenyltetrazolium bromide) to a blue-colored product, formazan. The amount of formazan thus obtained is directly proportional to the amount of live cells present in the culture well(s). This amount of formazan is measured by spectrophotometry.
(§3) The cell lines are maintained as a monolayer culture at 37° C. in stoppered culture dishes containing MEM 25 MM HEPES (Minimum Essential Medium) base medium. This medium is suited to the growth of a range of various mammalian diploid or primary cells. This medium is then supplemented with:
(§4) an amount of 5% of FCS (Foetal Calf Serum) decomplemented at 56° C. for 1 hour,
(§5) 0.6 mg/ml of L-glutamine,
(§6) 200 μg/ml of streptomycin,
(§7) The 12 human cancer cell lines which were used were obtained from the American Type Culture Collection (ATCC, Rockville, Md., USA). These 12 cell lines are:
(§8) U-373MG (code ATCC: HTB-17) and U-87MG (code ATCC: HTB-14) which are two glioblastomas,
(§9) Experimentally: 100 μl of a cell suspension containing 20 000 to 50 000 (depending on the cell type used) cells/ml of culture medium are inoculated in 96-well flat-bottomed multi-well plates and are incubated at 37° C., under an atmosphere comprising 5% CO2 and 70% humidity. After incubation for 24 hours, the culture medium is replaced with 100 μl of fresh medium containing either the various test compounds at concentrations ranging from 10^−5 to 10^−10 M or the solvent used to dissolve the test products (control condition). After incubation for 72 hours under the above conditions, the culture medium is replaced with 100 μl of a yellowish solution of MTT dissolved at a rate of 1 mg/ml in RPMI 1640. The microplates are reincubated for 3 hours at 37° C. and are then centrifuged for 10 minutes at 400×g. The yellowish solution of MTT is removed and the blue formazan crystals formed in the cell are dissolved in 100 μl of DMSO. The microplates are then shaken for 5 minutes. The intensity of the resulting blue coloration, and thus of the conversion of the yellow product MTT into blue formazan by the cells that are still alive at the end of the experiment, is quantified by spectrophotometry using a Dynatech Immunoassay System machine at wavelengths of 570 nm and 630 nm corresponding, respectively, to the maximum absorption wavelengths of formazan and to the background noise. Software incorporated in the spectrophotometer calculates the average optical density values and the standard deviation (SD) and standard error of mean (SEM) values.
(§10) By way of example, the results of the average optical density, expressed as a percentage relative to the average optical density measured under the control condition (set equal to 100%), obtained at a concentration of 10^−5 M on the 12 abovementioned tumor cell lines are given in Table II.

U-373MG = experiment: MTT test, U-373MG; assay type: cell-based; details: Homo sapiens, U373 MG, 10^−5 M, 72 hours, control = 100%, mean ± SEM, read-out: average optical density (MTT), percentage relative to control
Experimental: as §1, §2, §3, §4, §5, §6, §7, §8, §9, §10

SW1088 = experiment: MTT test, SW1088; assay type: cell-based; details: Homo sapiens, 10^−5 M, 72 hours, control = 100%, mean ± SEM, read-out: average optical density (MTT), percentage relative to control
Experimental: as §1, §2, §3, §4, §5, §6, §7
SW1088 (code ATCC: HTB-12) which is an astrocytoma,
as §9, §10

T24 = experiment: MTT test, T24; assay type: cell-based; details: Homo sapiens, T-24, 10^−5 M, 72 hours, control = 100%, mean ± SEM, read-out: average optical density (MTT), percentage relative to control
Experimental: as §1, §2, §3, §4, §5, §6, §7
(§11) J82 (code ATCC: HTB-1) and T24 (code ATCC: HTB-4) which are two bladder cancers,
as §9, §10

J82 = experiment: MTT test, J82; assay type: cell-based; details: Homo sapiens, 10^−5 M, 72 hours, control = 100%, mean ± SEM, read-out: average optical density (MTT), percentage relative to control
Experimental: as §1, §2, §3, §4, §5, §6, §7, §11, §9, §10

HCT-15 = experiment: MTT test, HCT-15; assay type: cell-based; details: Homo sapiens, 10^−5 M, 72 hours, control = 100%, mean ± SEM, read-out: average optical density (MTT), percentage relative to control
Experimental: as §1, §2, §3, §4, §5, §6, §7
(§12) HTC-15 (code ATCC: CCL-225) and LoVo (code ATCC: CCL-229) which are two colorectal cancers,
as §9, §10

LoVo = experiment: MTT test, LoVo; assay type: cell-based; details: Homo sapiens, 10^−5 M, 72 hours, control = 100%, mean ± SEM, read-out: average optical density (MTT), percentage relative to control
Experimental: as §1, §2, §3, §4, §5, §6, §7, §12, §9, §10

MCF7 = experiment: MTT test, MCF7; assay type: cell-based; details: Homo sapiens, 10^−5 M, 72 hours, control = 100%, mean ± SEM, read-out: average optical density (MTT), percentage relative to control
Experimental: as §1, §2, §3, §4, §5, §6, §7
(§13) T-47D (code ATCC: HTB-133) and MCF7 (code ATCC: HTB-22) which are two breast cancers,
as §9, §10

T-47D = experiment: MTT test, T-47D; assay type: cell-based; details: Homo sapiens, T47D, 10^−5 M, 72 hours, control = 100%, mean ± SEM, read-out: average optical density (MTT), percentage relative to control
Experimental: as §1, §2, §3, §4, §5, §6, §7, §13, §9, §10

A549 = experiment: MTT test, A549; assay type: cell-based; details: Homo sapiens, 10^−5 M, 72 hours, control = 100%, mean ± SEM, read-out: average optical density (MTT), percentage relative to control
Experimental: as §1, §2, §3, §4, §5, §6, §7
(§14) A549 (code ATCC: CCL-185) and A-427 (code ATCC: HTB-53) which are two non-small-cell lung cancers,
as §9, §10

A-427 = experiment: MTT test, A-427; assay type: cell-based; details: Homo sapiens, 10^−5 M, 72 hours, control = 100%, mean ± SEM, read-out: average optical density (MTT), percentage relative to control
Experimental: as §1, §2, §3, §4, §5, §6, §7, §14, §9, §10

PC-3 = experiment: MTT test, PC-3; assay type: cell-based; details: Homo sapiens, 10^−5 M, 72 hours, control = 100%, mean ± SEM, read-out: average optical density (MTT), percentage relative to control
Experimental: as §1, §2, §3, §4, §5, §6, §7
PC-3 (code ATCC: CRL-1435) which is a prostate cancer.
as §9, §10

[1] = Determination of the maximum tolerated dose (MTD); details: mouse, in vivo, ip; B6D2F1/Jico mice; single intraperitoneal administration, 2.5 to 160 mg/kg; survival over 14 days
Experimental: 3.—Determination of the Maximum Tolerated Dose (MTD):
The evaluation of the maximum tolerated dose was carried out on 4- to 6-week-old B6D2F1/Jico mice. The compounds were administered intraperitoneally at increasing doses graduating from 2.5 to 160 mg/kg. The value of the MTD (expressed in mg/kg) is determined from the observation of the survival rate of the animals over a 14-day period after a single administration of the product under consideration. The weight change of the animals is also monitored during this period. When the value of the MTD is greater than 160 mg/kg, the MTD value is likened to 160 mg/kg by default.
The results of the estimation of the maximum tolerated dose (MTD) are collated in the following table: […]

SMILES	viability at 10 µM (U-87MG)	viability at 10 µM (U-373MG)	viability at 10 µM (SW1088)	viability at 10 µM (T24)	viability at 10 µM (J82)	viability at 10 µM (HCT-15)	viability at 10 µM (LoVo)	viability at 10 µM (MCF7)	viability at 10 µM (T-47D)	viability at 10 µM (A549)	viability at 10 µM (A-427)	viability at 10 µM (PC-3)	MTD at 14 day [1]
COc1ccc(-c2cc3c(OC)cc(OC)cc3n(C)c2=O)cc1 [CRL8244, 5,7-Dimethoxy-3-(4-methoxyphenyl)-1-methyl-1,2-dihydro-2-quinolinone]	97 ± 1%	69 ± 0.9%	81.3 ± 1.1%	88.7 ± 2.9%	88.5 ± 2.1%	76.8 ± 3%	78.2 ± 1.8%	75.9 ± 3.8%	105 ± 3%	98 ± 0.9%	93.6 ± 2.3%	83.2 ± 3.6%	> 160 mg/kg
COc1ccc(-c2cc3c(OC)cc(OC)cc3n(C)c2=S)cc1 [CRL8245, 5,7-Dimethoxy-3-(4-methoxyphenyl)-1-methyl-1,2-dihydro-2-quinolinethione]	58.6 ± 1.7%	63.7 ± 2.7%	75.1 ± 2%	51.1 ± 1.9%	31.1 ± 0.6%	35.8 ± 1.2%	65.5 ± 1.1%	46.9 ± 1%	59.6 ± 2.9%	74.1 ± 2.1%	69 ± 1.9%	74.4 ± 1.9%	> 160 mg/kg
COc1ccc(-c2cc3c(OC)cc(OC)cc3n(CCCN(C)C)c2=O)cc1 [CRL8254, 1-[3-(Dimethylamino)propyl]-5,7-dimethoxy-3-(4-methoxyphenyl)-1,2-dihydro-2-quinolinone]	105 ± 3.6%	7.6 ± 1.3%	128 ± 2.2%	103 ± 2.9%	87.8 ± 1%	94.4 ± 3.5%	91.8 ± 2.7%	81.9 ± 0.6%	55.2 ± 4.1%	96.9 ± 1.5%	20.2 ± 2.3%	97.9 ± 1.2%	> 160 mg/kg
COc1ccc(-c2cc3c(OC)cc(OC)cc3n(CC#N)c2=O)cc1 [CRL8255, [5,7-Dimethoxy-3-(4-methoxyphenyl)-2-oxo-1,2-dihydro-1-quinolinyl]acetonitrile]	72.5 ± 1.1%	68.5 ± 2.7%	67.5 ± 1.5%	79.5 ± 2.2%	36.2 ± 0.5%	58.7 ± 3%	56.9 ± 1.1%	71.5 ± 1.4%	73.7 ± 3.3%	79.1 ± 2.1%	76.3 ± 1.5%	77.7 ± 1.2%	> 160 mg/kg
COc1ccc(-c2cc3c(OC)cc(OC)cc3n(C)/c2=N\Nc2ccccn2)cc1 [CRL8266, 5,7-Dimethoxy-3-(4-methoxyphenyl)-1-methyl-1,2-dihydro-2-quinolinone-2-(2-pyridyl)hydrazone]	64.4 ± 1.2%	66.3 ± 1.6%	68.4 ± 1.6%	84.6 ± 3%	31.2 ± 0.7%	76.1 ± 1.5%	71.3 ± 4.5%	46.3 ± 2.6%	25 ± 4%	61.6 ± 3.5%	45.2 ± 2.2%	67.2 ± 0.9%	> 160 mg/kg
COc1ccc(-c2cc3c(OC)cc(OC)cc3n(C)/c2=N\Nc2ccccc2)cc1 [CRL8270, 5,7-Dimethoxy-3-(4-methoxyphenyl)-1-methyl-1,2-dihydro-2-quinolinone-2-phenylhydrazone]	75.6 ± 0.9%	52.2 ± 3.2%	50.7 ± 1.8%	51.1 ± 3.8%	42.5 ± 0.8%	58.8 ± 1.8%	80 ± 3.2%	51.5 ± 2.4%	22.9 ± 4.3%	52.2 ± 2.4%	30.8 ± 2.1%	49.4 ± 1.1%	> 160 mg/kg
COc1ccc(-c2cc3c(OC)cc(OC)cc3nc2S)cc1 [CRL8271, 5,7-Dimethoxy-3-(4-methoxhphenyl)-1,2-dihydro-2-quinolinethione]	78.5 ± 1.7%	96.2 ± 1.6%	102.2 ± 0.5%	107 ± 2.3%	75.9 ± 1.3%	87.2 ± 2.8%	94.2 ± 2.8%	106 ± 2.3%	90.9 ± 1.7%	94.2 ± 4.7%	84.1 ± 1.9%	107 ± 2.7%	> 160 mg/kg
COc1cc(OC)c2cc(-c3ccc(O)cc3)c(O)nc2c1 [CRL8284, 5,7-Dimethoxy-3-(4-hydroxyphenyl)-1,2-dihydro-2-quinolinone]	88.1 ± 2.2%	87.7 ± 1.4%	78.3 ± 1.6%	68.5 ± 0.9%	48.8 ± 0.7%	77.3 ± 1.8%	102 ± 1.3%	66.6 ± 2.7%	89.9 ± 1.9%	91.7 ± 1.6%	96 ± 2%	83.8 ± 1%	> 160 mg/kg
COc1ccc(-c2cc3c(OC)cc(OC)c4c3n(c2=O)CCC4=O)cc1 [CRL8285, 8,10-Dimethoxy-6-(4-methoxyphenyl)-2,3-dihydro-1H,5H-pyrido[3,2,1-ij]quinoline-1,5-dione]	85.1 ± 2%	96.9 ± 1.6%	89.8 ± 2.7%	72.7 ± 1.8%	68.7 ± 2.9%	90.6 ± 1.6%	103 ± 3.1%	83.7 ± 2.3%	89.3 ± 1.7%	92.5 ± 3.5%	78.4 ± 1.6%	93.4 ± 1.8%	> 160 mg/kg
Oc1ccc(-c2cc3c(O)cc(O)cc3nc2O)cc1 [CRL8311, 5,7-Dihydroxy-3-(4-hydroxyphenyl)-1,2-dihydro-2-quinolinone]	91.8 ± 1.3%	113 ± 2.5%	80.7 ± 1.7%	90 ± 1.9%	127 ± 1.9%	101 ± 3.6%	77.9 ± 1.7%	98.8 ± 2.3%	108 ± 6.6%	106 ± 2.4%	89.7 ± 2%	122 ± 3.5%	> 160 mg/kg
